Assay results reported in patent US7005274B1, “Methods and compositions for diagnosing and treating arthritic disorders and regulating bone mass” (MIGENIX Corp., priority 1999, dated 2006).

How the values were obtained:
TC28 cells [1] = assay: Cell viability by LDH release in stressor-exposed chondrocytes; assay type: cell-based; conditions: for cell viability (LDH release) under SIN-1 / cell viability under NOC-12 / cell viability of cells exposed to SIN-1 or NOC-12: compound 1 μM; for cell viability (LDH release) under SIN-1: 100 μM SIN-1; for cell viability under NOC-12: NOC-12 (250 μM)
Method: (§1) This example describes screening assays using defined chondrocyte functions, for identifying agents that protect chondrocytes from mitochondrial stressors, such as energy depletion or reactive free radicals. Chondrocytic TC28 cells were maintained at 37° C., 5% CO2 in monolayer culture in DMEM/Ham's F12 medium (1:1) supplemented with 10% FCS, 1% L-glutamine, 100 U/ml penicillin and […] streptomycin (Omega Scientific, Tarzana, Calif.). To more closely approximate the in vivo physiologic nonadherent state of chondrocytes for monitoring GAG release (FIG. 10), an in vitro culture system was used wherein TC28 cells were transferred to 6-well plates that had been previously coated for 18 hours at 22° C. with the cell adhesion inhibitor poly-2-hydroxymethacrylate (polyHEMA), provided as a 10% (w/v) solution in 95% ethanol, then washed twice with PBS. Complete medium (DMEM/F12 supplemented as described above) was then added to wells, and cells were maintained under these conditions for up to 72 hours (Folkman et al., 1978 Nature 273:345; Reginato et al., 1994 Arthritis Rheum. 37:1338). Maintenance of chondrocyte phenotype was confirmed by RT-PCR determination of gene transcripts encoding the chondrocyte extracellular matrix components type II collagen and aggrecan (Reginato et al., 1994).
Cells were exposed to one of several agonists added to cultures as stressors for 72 hours, in the absence or presence of candidate chondrocyte protective agents (listed in Table 2). According to non-limiting theory, such stressors may act as one or more of a mitochondrial inhibitor, an inducer of altered mitochondrial function, an apoptogen, an energy-depleting agent, or the like. Stressors used in this example included the […] NOC-12 (N-ethyl-2-(1-ethyl-2-hydroxy-2-nitrosohydrazino)ethanamine; Calbiochem, La Jolla, Calif.); the peroxynitrite donor SIN-1 (3-morpholinosydnonimine, HCl; Calbiochem); and the inflammatory cytokine human recombinant interleukin-1 beta (IL-1β, Calbiochem). Cytotoxicity was determined using the lactate dehydrogenase release assay (Promega, Madison, Wis.) as described above and according to the manufacturer's instructions, and chondrocyte intracellular ATP was determined using the luciferase assay as described above in Example 1.

TC28 cells [2] = assay: GAG release, dimethylene blue dye binding; assay type: cell-based; conditions: for GAG release caused by stressor: TC28 nodules, SIN-1 100 μM, NOC-12 25 μM, IL-1β
Method: as §1
Glycosaminoglycan (GAG) release is widely believed to be a cardinal event in the pathogenesis of osteoarthritis, and is stimulated by IL-1β (see, e.g., Sztrolovics et al., 1999 Biochem. J. 339:571 and references cited therein). Therefore, GAG release was determined in chondrocytes maintained on polyHEMA-coated plates as follows: Chondrocyte cartilage “nodules” from the polyHEMA cultures were digested for one hour with papain, 300 μg/ml in 20 mM sodium phosphate-pH 6.8, 1 mM EDTA, 2 mM dithiothreitol. Released GAG was assayed colorimetrically by dimethylene blue (DMB) dye binding according to established procedures (Farndale et al., 1986 Biochim. Biophys. Acta 883:173; Sztrolovics et al., 1999 Biochem. J. 339:571). Briefly, aliquots of the papain digest were added to a dye solution containing 46 μM DMB, 40 mM glycine-pH 3.0, 40 mM NaCl and read immediately in a spectrophotometer at 525 nm. Quantification of GAG in the samples was achieved from calculations using a standard curve generated with samples of 1–50 μg/ml chondroitin sulfate. Mitochondrial protecting agents based on derivatized creatine, ethoxyquin and guanidine compounds were synthesized essentially as disclosed in WO99/37294 (PCT/US99/01718) and WO99/55321 (PCT/US99/09990), which are hereby incorporated by reference in their entireties; these agents were tested as representative candidate chondrocyte protective agents.

TC28 cells [3] = assay: Intracellular ATP, luciferase assay; assay type: cell-based; conditions: for intracellular ATP levels relative to control culture not exposed to NOC-12: NOC-12 alone or in the presence of 1 μM compound
Method: (§2) Levels of total cellular ATP were measured by a modification of luciferase-based assays known in the art (Lin et al., Anal. Biochem. 24:531–540, 1968); related assays and modifications may alternatively be used (see, e.g., Turman et al., In Vitro Cell. Dev. Biol. Anim. 32:1–4, 1996, for an assay format that uses a fluorescent plate reader). In brief, 2×10^6 cells were washed and pelleted in 10 ml phosphate-buffered saline (PBS). The cell pellets were snap-frozen in a dry ice/ethanol bath, after which […] of 0.2 M HCl was added, followed by 0.3 ml of 2 mM glycine (pH 9.0). Samples were heated at 100° C. for five minutes, then placed on ice. A standard curve was developed using 0 to 500 pmol of purified ATP (disodium salt). One hundred (100) μl of the cell extract, or purified ATP standard, was added to an equal volume of the ATP assay mixture (containing MgSO4, DTT, EDTA, luciferase and luciferin, all from the Sigma Bioluminescence Assay Kit and all diluted 1:25). Following a 5 second incubation and 15 second integration, samples were read on a TD-20/20 Luminometer (Turner Designs, Sunnyvale, Calif.).

[4] = system: articular chondrocytes and TC28 cells; assay: Intracellular ATP, statements covering both cell preparations; assay type: cell-based, human; conditions: for intracellular ATP levels (qualitative): SIN-1 500 μM, NOC-12 250 μM, antimycin A and oligomycin concentration not stated
Method: as §2
In FIG. 1A, articular chondrocytes or TC28 cells (5×10^5) in 5 ml were studied in triplicate in the presence of antimycin (or oligomycin, see next Example) at the indicated concentrations, administered every 24 hours for a total of 72 hours, and total intracellular ATP concentrations were determined as described above. Viability determinations are shown in FIG. 1B, where 2×10^4 chondrocytes or TC28 cells in 0.2 ml were cultured in triplicate in the presence of antimycin (or oligomycin) at the indicated concentrations, administered every 24 hours for a total of 72 hours, and cell viability was determined by trypan blue dye exclusion (>200 cells counted for each replicate).

[5] = system: articular chondrocytes and TC28 cells; assay: Oxygen consumption with a Clark electrode (respiratory rate); assay type: cell-based, human; conditions: SIN-1 500 μM; NOC-12 250 μM; antimycin A and oligomycin concentration not stated
Articular Chondrocytes = assay: Intracellular ATP, luciferase assay; assay type: cell-based, human; conditions: 10 ng/ml TGFβ, 0.025 mM antimycin A, 0.02 μg/ml oligomycin; mean ± SD
Method: Human articular cartilage chondrocytes were obtained by collagenase digestion of articular cartilage samples, and subsequent monolayer culture, essentially as described by Terkeltaub et al. (Arthritis Rheum. 41:2152–2164, 1998). The starting material for these primary cultures was human articular cartilage excised during surgical joint replacement, or obtained at autopsy from normal or osteoarthritic joints. The articular chondrocytes were grown in Dulbecco's modified Eagle's Medium with high glucose (DMEM high glucose, Life Technologies, Inc. Grand Island, N.Y.) with 10% fetal calf serum (FCS), 1% glutamine, 100 U/ml penicillin and 50 μg/ml streptomycin (all reagents from Sigma, St. Louis, Mo., unless otherwise noted). Typically, only first passage cells were used in the studies described herein.
as §2, with “Calif.). […]” for “Calif.).”

Q: With Cc1cc(O)ccc1NC(=N)N [A] as the compound, how does the “cell viability (LDH release) under SIN-1” value (TC28 cells [1]) read?
A: The value was “protective effect on cell viability”.

Q: What about the “cell viability under NOC-12” value (TC28 cells [1]) of the same compound?
A: The value was “moderating effect of the test compounds on NO cytotoxicity”.

Q: For N=C1NCCN1CC(=O)O [B], which “cell viability (LDH release) under SIN-1” value (TC28 cells [1]) is on record?
A: The value was “protective effect on cell viability”.

Q: And the “cell viability under NOC-12” value (TC28 cells [1])?
A: The value was “moderating effect of the test compounds on NO cytotoxicity”.

Q: Which “cell viability (LDH release) under SIN-1” value (TC28 cells [1]) does the source give for CN(CC(=O)O)C(=N)N [C] here?
A: The value was “protective effect on cell viability”.

Q: What about the “cell viability under NOC-12” value (TC28 cells [1]) of the same compound?
A: The value was “moderating effect of the test compounds on NO cytotoxicity”.

Q: What about the “GAG release induced by SIN-1 or NOC-12” value (TC28 cells [2]; SIN-1 (100 μM) or NOC-12 (25 μM), 1 μM compound, not shown) of the same compound?
A: The value was “the severity of this release was moderated”.

Q: And the “IL-1β-stimulated GAG release” value (TC28 cells [2]; TC28 nodules on polyHEMA-coated plates)?
A: The value was “somewhat attenuated the degree of GAG release”.

Q: Which “cell viability under NOC-12” value (TC28 cells [1]) does the source give for N=C(N)Nc1ccc(N2CCOCC2)cc1 [E] here?
A: Its value is “significantly higher viability”.

Q: And the “intracellular ATP levels relative to control culture not exposed to NOC-12” value (TC28 cells [3])?
A: The value was “significant depression of intracellular ATP”.

Q: CC(=N)NNCC1(C)CCc2c(C)c(O)c(C)c(C)c2O1 (centres unmarked) [J] was tested. Which “cell viability of cells exposed to SIN-1 or NOC-12” value (“cell viability of cells exposed” below) (TC28 cells [1]) did it give?
A: Its value is “demonstrated chondrocyte protective activity”.

Q: For CN(C)c1cc(C(C)(C)c2ccc(O)c(N(C)C)c2)ccc1O [K], which “cell viability of cells exposed” value (TC28 cells [1]) is on record?
A: The value was “demonstrated chondrocyte protective activity”.

Q: For CC(C)(c1ccc(O)cc1)c1ccc(O)c(N)c1 [L], which “cell viability of cells exposed” value (TC28 cells [1]) is on record?
A: Its value is “demonstrated chondrocyte protective activity”.

Q: CCNCCN(CC)N(O)N=O [NOC-12, N-ethyl-2-(1-ethyl-2-hydroxy-2-nitrosohydrazino)ethanamine] was tested. Which “intracellular ATP levels (qualitative)” value [4] did it give?
A: The value was “depressed intracellular ATP levels”.

Q: And the “intracellular ATP levels relative to control culture not exposed to NOC-12” value (TC28 cells [3])?
A: Its value is “significant depression of intracellular ATP”.

Q: What about the “GAG release caused by stressor” value (TC28 cells [2]) of the same compound?
A: The value was “also released GAG”.

Q: What about the respiratory rates [5] of the same compound?
A: The respiratory rates was “markedly inhibited respiratory rates”.

Q: Which results are given for Nc1c[n+](N2CCOCC2)no1.[Cl-] [SIN-1, 3-morpholinosydnonimine, HCl]?
A: intracellular ATP levels (qualitative) [4]: depressed intracellular ATP levels; GAG release caused by stressor (TC28 cells [2]): also released GAG; respiratory rates [5]: markedly inhibited respiratory rates

Q: “IL-1β: inflammatory cytokine human recombinant interleukin-1 beta” was tested. Which “effect of stressor on viability” value (TC28 cells [1]; TC28 cells) did it give?
A: Its value is “did not cause a decrease”.

Q: And the “effect of stressor on intracellular ATP levels” value (TC28 cells [3]; TC28 cells)?
A: The value was “did not cause a decrease in intracellular ATP levels”.

Q: And the “GAG release caused by stressor” value (TC28 cells [2])?
A: Its value is “IL-1β-stimulated GAG release”.

Q: With TGFβ as the compound, how does the “increase of intracellular ATP” value ([4]; chondrocytes, assessed 72 hours after treatment) read?
A: Its value is “about 3 fold”.

Q: What about the “ATP (pmoles/μg DNA):TC28 cells” value (TC28 cells [3]; 10 ng/ml TGFβ, 0.025 mM antimycin A, 0.02 μg/ml oligomycin, mean ± SD) of the same compound?
A: The value was 801.6 ± 4.9 pmoles/μg DNA.

Q: And the “ATP (pmoles/μg DNA): Articular Chondrocytes” value (Articular Chondrocytes)?
A: Its value is 1,158 ± 6.9 pmoles/μg DNA.
